Consider eight compounds from patent publication US12649733B2, “3,6-diamino-pyridazin-3-yl derivatives, pharmaceutical compositions containing them and their uses as pro-apoptotic agents” (LES LABORATOIRES SERVIER, priority 2019, dated 2026).

Structures are written as SMILES. A value given as a limit tells only on which side of the number the result lay.

The subject of data set [1] is hematological malignancies and solid tumors. Particulars: several hematological malignancies and solid tumors; cited from earlier work.
The test system of the next data set is lymphoid malignancies. Particulars: cited from earlier work.
Data set [2] relates to T-ALL patient derived xenograft models. Particulars: in vivo; cited from earlier work.
The subject of another data set is lymphocyte proliferation. Particulars: in vitro; cited from earlier work.
The conditions of data set [3]: mice, animal models of arthritis and lupus; cited from earlier work.
In another data set the test system is allogeneic T-cell. Particulars: in vitro; cited from earlier work.
For data set [4], the system named is allogeneic T- and B-cell responses. Particulars: after skin transplantation; cited from earlier work.
Data set [5] deals with T1, BCLXL (Homo sapiens, UniProt Q07817, V10N/V9A). The data set is described as follows: Fluorescence polarisation assay (PUMA-based probe displacement). Note: 20 nM protein, 10 nM fluorescent probe. The data set is classed as binding. (In general: Polarisation of emitted light reports the rotation of a fluorescent probe.)
T1 sequence (Q07817 with tags, fused parts or gaps V9A/V10N): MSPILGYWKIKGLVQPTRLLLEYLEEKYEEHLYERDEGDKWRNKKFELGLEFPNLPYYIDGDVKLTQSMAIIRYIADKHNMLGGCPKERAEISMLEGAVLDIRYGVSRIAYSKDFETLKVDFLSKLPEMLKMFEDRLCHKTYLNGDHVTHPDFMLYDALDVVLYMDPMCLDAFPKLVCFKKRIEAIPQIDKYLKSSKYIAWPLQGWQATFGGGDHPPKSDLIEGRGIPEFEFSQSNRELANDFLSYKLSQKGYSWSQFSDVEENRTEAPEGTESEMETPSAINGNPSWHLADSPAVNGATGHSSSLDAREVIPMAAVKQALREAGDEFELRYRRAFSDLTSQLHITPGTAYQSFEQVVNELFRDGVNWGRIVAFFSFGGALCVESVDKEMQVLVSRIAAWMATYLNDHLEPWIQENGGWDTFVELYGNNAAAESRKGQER
The target in data set [6] is T1, BCLXL. The data set is described as follows: AlphaLISA assay (BIM peptide displacement). The data set is classed as binding. Particulars: 20 pM protein, 1 nM peptide. The method, boiled down:
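Competitive displacement of fluorescein-labelled BIM peptide (1 nM) from biotinylated GST-BCL-XL(2-209) (20 pM) in 10 mM HEPES, 150 mM NaCl, 0.05% Tween 20, pH 7.4, 4% DMSO; 11-point dilutions. Overnight at 23° C with acceptor beads, then donor beads 2 h; Alpha signal at 615 nm.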
For orientation: Bead proximity is the source of the signal in Alpha formats.

The target in the next data set is T2, Bcl-xL protein (Homo sapiens, UniProt Q07817, N197C).
T2 construct: (2-197)[N197C]; His-His (two His8 stretches joined by a Gly/Ala/Ser/Thr linker)
T2 sequence (Q07817 2-197 N197C): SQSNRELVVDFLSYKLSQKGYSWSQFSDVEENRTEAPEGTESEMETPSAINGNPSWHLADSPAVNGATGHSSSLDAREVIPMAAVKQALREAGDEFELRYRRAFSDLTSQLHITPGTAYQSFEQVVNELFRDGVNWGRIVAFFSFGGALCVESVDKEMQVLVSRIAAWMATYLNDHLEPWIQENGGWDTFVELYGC
The experiment in a line: Fluorescence quenching assay (PUMA peptide displacement). Format: binding. Particulars: 1 nM protein, 400 nM peptide, 2 hours at 23° C.; KI determined from IC50. Put shortly: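 Compounds were tested as an 11-point series in pH 7.4 HEPES/NaCl/Tween buffer with 5% DMSO, 2 h at 23 °C. Cy5-tagged Bcl-xL(2-197, N197C) at 1 nM and quencher-tagged PUMA peptide at 400 nM were used. Competitive binders restore fluorescence (620/680 nm), and IC50 values were converted to KI.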

A further data set deals with H146 cells. The data set is described as follows: H146 cell viability, MTT assay. Particulars: Homo sapiens, NCI-H146, 48 h, 48 h exposure. The data set is classed as cell-based. Put shortly: (§1)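 Viability read by MTT reduction (OD 540 nm after overnight SDS/HCl lysis) after 48 h compound treatment of cells in RPMI 1640/10% FBS. Triplicates at nine concentrations, 3.16-fold apart; four-parameter curve fitting yields IC50.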

A further data set concerns MOLT-4 cells. The experiment in a line: MOLT-4 cell viability, MTT assay. Particulars: Homo sapiens, MOLT-4, 48 h, 48 h exposure. The data set is classed as cell-based. The method, boiled down:
as §1

Data set [7] concerns MOLT-4 T-cell Acute Lymphoblastic Leukemia (T-ALL) model. The experiment in a line: MOLT-4 xenograft efficacy study (tumor growth inhibition). Format: in vivo, female NOD SCID mice. Particulars: for % TGI (day 17): 3.75 mg/kg, IV, Q3D6; for activity in vivo after intravenous administration: MOLT-4 xenograft. The procedure: The in vivo therapeutic and pharmacodynamic effects of Bcl-xL-targeting small molecules were determined in MOLT-4 T-cell Acute Lymphoblastic Leukemia (T-ALL) model upon intravenous (IV) administration. The tested compounds were formulated in Hydroxypropyl-β-Cyclodextrin 20%/Hydrogen Chloride 25 mM (HPBCD/HCl). MOLT-4 cells (ATCC No. CRL-1582) were cultured in RPMI supplemented with 10% FBS. Cells were re-suspended in 50% matrigel (BD Biosciences) and 0.1 mL containing 5×10^6 cells was subcutaneously inoculated into the right flank of female NOD SCID mice (Charles River). For efficacy studies, when tumors reached the appropriate volume, mice were randomized (8 animals per group) using Easy stat software. Control vehicle (HPBCD/HCl), Example 73 (3.75 or 7.5 mg/kg) or Example 100 (3.75 mg/kg) were injected IV ([…]-[…]). Mice body weight was monitored three times a week and tumor size was measured using electronic calipers. Tumor volume was estimated by measuring the minimum and maximum tumor diameters using the formula: (minimum diameter)^2 (maximum diameter)/2. At the end of the treatment cycle (day 17), tumor growth inhibition was calculated using the formula: [formula] Response was evaluated as follows: CR (Complete Response) if tumor size was ≤25 mm^3 for at least three consecutive measurements, PR (Partial Response) if tumor size was comprised between 25 mm^3 and half of the starting size for at least three consecutive measurements. Mice were sacrificed at the first measurement for which tumor volume exceeded 2000 mm^3 or at the first signs of animal health deterioration. Efficacy of Example 73 and Example 100 on MOLT-4 xenografts is illustrated in Table 5. Treatment was started 12 days post tumor cells inoculation (average size: 214 mm^3). Vehicle (HPBCD/HCl), Example 73 (3.75 and 7.5 mg/kg) or Example 100 (3.75 mg/kg) were dosed IV each 3 days for a total of 6 administrations.

The subject of data set [8] is T-ALL (T-cell Acute Lymphoblastic Leukemia) and different types of solid tumors. Particulars: pre-clinical models of T-ALL and different types of solid tumors; cited from earlier work.
The subject of the next data set is MOLT-4. Particulars: mature T-ALL cell line xenograft model MOLT-4; cited from earlier work.

Regarding `CC1(C)CCC(c2ccc(Cl)cc2)=C(CN2CCN(c3ccc(C(=O)NS(=O)(=O)c4ccc(N[C@H](CCN5CCOCC5)CSc5ccccc5)c(S(=O)(=O)C(F)(F)F)c4)cc3)CC2)C1` [ABT-263], the “activity in pre-clinical models” value in [1] is on record as “has shown activity”. Besides, the “antitumor activity in clinical studies” value in the data set on lymphoid malignancies is “exhibited objective antitumor activity”. The “activity in T-ALL patient derived xenograft models” value in data set [2] was “promising activity”.
With `CN(C)CC[C@H](CSc1ccccc1)Nc1ccc(S(=O)(=O)NC(=O)c2ccc(N3CCN(Cc4ccccc4-c4ccc(Cl)cc4)CC3)cc2)cc1[N+](=O)[O-]` [ABT-737], in the data set on lymphocyte proliferation, the “inhibition of lymphocyte proliferation” value was “potent inhibition of lymphocyte proliferation”. Besides, the disease severity result in data set [3] is “significant decrease in disease severity”. The “allogeneic T-cell activation, proliferation, and cytotoxicity” value with allogeneic T-cell is “prevented allogeneic T-cell activation, proliferation, and cytotoxicity”. Further, in data set [4], the “allogeneic T- and B-cell responses” value is “inhibited allogeneic T- and B-cell responses”. Also, the “activity in T-ALL patient derived xenograft models” value in data set [2] is listed as “promising activity”.
The Ki is the equilibrium dissociation constant of an inhibitor or competing ligand from its target. As usually defined, the IC50 is the concentration needed to halve the response being measured. Turning to `CNCC#Cc1ccc(OCCCc2sc(N(C)c3cc(C)c(Nc4nc5ccccc5s4)nn3)nc2C(=O)O)c(F)c1` [Example 73, 2-({6-[(1,3-Benzothiazol-2-yl)amino]-5-methylpyridazin-3-yl}(methyl)amino)-5-(3-{2-fluoro-4-[3-(methylamino)prop-1-yn-1-yl]phenoxy]propyl)-1,3-thiazole-4-carboxylic acid], the Ki at BCLXL [5] was less than 1 nM; on Bcl-xL protein, 0.0028 nM. Moreover, the IC50 worked out at 0.0077 nM on BCLXL [6], 4.8 nM in the data set with H146 cells and 1.51 nM in the data set on MOLT-4 cells. The “% TGI (day 17)” value in data set [7] stood at 56.9%. Further, the “activity in vivo after intravenous administration” value (“activity in vivo” below) in [7] is “active in vivo”.
Consider `CNCCN(C)CC#Cc1ccc(OCCCc2sc(N(C)c3cc(C)c(Nc4nc5ccccc5s4)nn3)nc2C(=O)O)c(F)c1` [Example 74, 2-({6-[(1,3-Benzothiazol-2-yl)amino]-5-methylpyridazin-3-yl}(methyl)amino)-5-{3-[2-fluoro-4-(3-{methyl[2-(methylamino)ethyl]amino}prop-1-yn-1-yl)phenoxy]propyl}-1,3-thiazole-4-carboxylic acid], for which the figures for the Ki at BCLXL [5] and at Bcl-xL protein were 1.1 nM and 0.0061 nM, respectively. For the same compound, the IC50 was 0.074 nM on BCLXL [6], 6.78 nM in the data set on H146 cells and 6.72 nM in the data set with MOLT-4 cells. Further, the “activity in vivo” value in data set [7] was “active in vivo”.
Regarding `Cc1cc(N(C)c2nc(C(=O)O)c(CCCOc3ccc(C#CCN(C)CCO)cc3F)s2)nnc1Nc1nc2ccccc2s1` [Example 76, 2-({6-[(1,3-Benzothiazol-2-yl)amino]-5-methylpyridazin-3-yl}(methyl)amino)-5-[3-(2-fluoro-4-{3-[(2-hydroxyethyl)(methyl)amino]prop-1-yn-1-yl}phenoxy)propyl]-1,3-thiazole-4-carboxylic acid], the Ki at BCLXL [5] was less than 1 nM. The IC50 at BCLXL [6] was found to be 0.077 nM; in the data set on H146 cells, 11.3 nM; in the data set on MOLT-4 cells it was 2.37 nM. Besides, the “activity in vivo” value in data set [7] is “active in vivo”.
Turning to `Cc1cc(N(C)c2nc(C(=O)O)c(CCCOc3ccc(C#CCO)cc3F)s2)nnc1Nc1nc2ccccc2s1` [Example 100, 2-({6-[(1,3-Benzothiazol-2-yl)amino]-5-methylpyridazin-3-yl}(methyl)amino)-5-{3-[2-fluoro-4-(3-hydroxyprop-1-yn-1-yl)phenoxy]propyl}-1,3-thiazole-4-carboxylic acid], the Ki on BCLXL [5] was determined as 1.6 nM. For the same compound, the IC50 on BCLXL [6] worked out at 0.032 nM; with H146 cells, 38.6 nM; with MOLT-4 cells, 12.6 nM. Besides, in [7], the “% TGI (day 17)” value was 64.6%. In addition, the “activity in vivo” value in [7] is “active in vivo”.
Take `CN(C)CC#Cc1ccc(OCCCc2sc(N3CCc4cccc(C(=O)Nc5nc6ccccc6s5)c4C3)nc2C(=O)O)c(F)c1` [Example A-1155463]: in data set [8], the in vivo activity result is “exhibited in vivo activity”.
Regarding `Cc1c(-c2ccc(N3CCc4cccc(C(=O)Nc5nc6ccccc6s5)c4C3)nc2C(=O)O)cnn1CC12CC3CC(CC(C3)C1)C2` [Example A-1331852], in data set [8], the in vivo activity result was “exhibited in vivo activity”. In addition, in the data set with MOLT-4, the “in vitro and in vivo activity” value is “in vitro and in vivo activity”.
